Molecular target: OXE receptor (Felis catus, UniProt A0ABI7XKF2)
Test: actin polymerization
Type: cell-based

OXE receptor, sequence (A0ABI7XKF2 1-379): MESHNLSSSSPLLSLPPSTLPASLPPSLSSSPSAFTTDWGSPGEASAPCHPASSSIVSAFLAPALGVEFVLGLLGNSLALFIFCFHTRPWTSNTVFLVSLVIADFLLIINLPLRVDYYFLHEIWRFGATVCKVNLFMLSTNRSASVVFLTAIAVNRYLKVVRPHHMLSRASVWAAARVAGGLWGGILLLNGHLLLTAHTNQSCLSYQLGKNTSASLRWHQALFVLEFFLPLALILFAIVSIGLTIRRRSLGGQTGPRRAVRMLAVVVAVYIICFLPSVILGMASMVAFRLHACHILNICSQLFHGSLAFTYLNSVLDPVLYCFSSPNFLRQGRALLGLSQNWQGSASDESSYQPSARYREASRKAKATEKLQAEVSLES

EC50: 0.72 nM
Structure (SMILES): CCCCC/C=C\C/C=C\C/C=C\C=C\C(=O)CCCC(=O)O [5-oxo-ETE, 5-oxo-6E,8Z,11Z,14Z-eicosatetraenoic acid]

Reference: paper PMC4830392 (Biochemical pharmacology, 2015)
